Measured values published in patent US6124269A, “2-Halo-6-O-substituted ketolide derivatives” (priority 1998, dated 2000).
Values after ≈ are worked out from the molar mass of the structure shown.

Assays:
Assay type in all cases: cell-based
[1] = test system: Staphylococcus aureus ATCC 6538P; assay: In vitro agar dilution MIC, organism code AA; details: Table 1B, unit assumed
Procedure, shortened: (§1)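 A same-class reference antibiotic with known susceptibility was run alongside as a control for test-to-test comparability. Test compound was incorporated into BHI agar at twelve successive dilutions, spot-inoculated, incubated 20-24 h at 35-37° C, and MIC scored visually.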

[2] = test system: Staphylococcus aureus A5177; assay: In vitro agar dilution MIC, organism code BB; details: Table 1B, in µg/mL (unit assumed)
Procedure, shortened: as §1

[3] = test system: Staphylococcus aureus A-5278; assay: In vitro agar dilution MIC, organism code CC; details: Table 1B, unit assumed
Procedure, shortened: as §1

[4] = test system: Staphylococcus aureus CMX 642A; assay: In vitro agar dilution MIC, organism code DD; details: Table 1B, unit assumed
Procedure, shortened: as §1

[5] = test system: Staphylococcus aureus NCTC10649M; assay: In vitro agar dilution MIC, organism code EE; details: Table 1B, unit assumed
Procedure, shortened: as §1

[6] = test system: Staphylococcus aureus CMX 553; assay: In vitro agar dilution MIC, organism code FF; details: Table 1B, unit assumed
Procedure, shortened: as §1

[7] = test system: Staphylococcus aureus 1775; assay: In vitro agar dilution MIC, organism code GG; details: Table 1B, unit assumed
Procedure, shortened: as §1

[8] = test system: Staphylococcus epidermidis 3519; assay: In vitro agar dilution MIC, organism code HH; details: Table 1B, in µg/mL (unit assumed)
Procedure, shortened: as §1

[9] = test system: Enterococcus faecium ATCC 8043; assay: In vitro agar dilution MIC, organism code II; details: Table 1B, unit assumed
Procedure, shortened: as §1

[10] = test system: Streptococcus bovis A-5169; assay: In vitro agar dilution MIC, organism code JJ; details: Table 1B, unit assumed
Procedure, shortened: as §1

[11] = test system: Streptococcus agalactiae CMX 508; assay: In vitro agar dilution MIC, organism code KK; details: Table 1B, unit assumed
Procedure, shortened: as §1

[12] = test system: Streptococcus pyogenes EES61; assay: In vitro agar dilution MIC, organism code LL; details: Table 1B, unit assumed
Procedure, shortened: as §1

[13] = test system: Streptococcus pyogenes 930; assay: In vitro agar dilution MIC, organism code MM; details: Table 1B, unit assumed
Procedure, shortened: as §1

[14] = test system: Streptococcus pyogenes PIU 2548; assay: In vitro agar dilution MIC, organism code NN; details: Table 1B, unit assumed
Procedure, shortened: as §1

[15] = test system: Micrococcus luteus ATCC 9341; assay: In vitro agar dilution MIC, organism code OO; details: Table 1B, unit assumed
Procedure, shortened: as §1

[16] = test system: Micrococcus luteus ATCC 4698; assay: In vitro agar dilution MIC, organism code PP; details: Table 1B, in µg/mL (unit assumed)
Procedure, shortened: as §1

[17] = test system: Escherichia coli JUHL; assay: In vitro agar dilution MIC, organism code QQ; details: Table 1B, in µg/mL (unit assumed)
Procedure, shortened: as §1

[18] = test system: Escherichia coli SS; assay: In vitro agar dilution MIC, organism code RR; details: Table 1B, in µg/mL (unit assumed)
Procedure, shortened: as §1

[19] = test system: Escherichia coli DC-2; assay: In vitro agar dilution MIC, organism code SS; details: Table 1B, unit assumed
Procedure, shortened: as §1

[20] = test system: Candida albicans CCH 442; assay: In vitro agar dilution MIC, organism code TT; details: Table 1B, unit assumed
Procedure, shortened: as §1

[21] = test system: Mycobacterium smegmatis ATCC 114; assay: In vitro agar dilution MIC, organism code UU; details: Table 1B, in µg/mL (unit assumed)
Procedure, shortened: as §1

[22] = test system: Nocardia asteroides ATCC 9970; assay: In vitro agar dilution MIC, organism code VV; details: Table 1B, in µg/mL (unit assumed)
Procedure, shortened: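 Test compound serially diluted in Brain Heart Infusion agar across twelve plates; strains applied by Steers replicator at 1:100 dilution (1:10 for slow growers such as Streptococcus). Plates incubated 20 to 24 hours at 35-37° C. MIC taken as lowest concentration giving no growth, slight haze or sparse isolated colonies versus drug-free control.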

[23] = test system: Haemophilis influenzae DILL AMP R; assay: In vitro agar dilution MIC, organism code WW; details: Table 1B, unit assumed
Procedure, shortened: as §1

[24] = test system: Streptococcus pneumoniae ATCC 6303; assay: In vitro agar dilution MIC, organism code XX; details: Table 1B, unit assumed
Procedure, shortened: as §1

[25] = test system: Streptococcus pneumoniae GYR 1171; assay: In vitro agar dilution MIC, organism code YY; details: Table 1B, unit assumed
Procedure, shortened: as §1

[26] = test system: Streptococcus pneumoniae 5979; assay: In vitro agar dilution MIC, organism code ZZ; details: Table 1B, unit assumed
Procedure, shortened: as §1

[27] = test system: Streptococcus pneumoniae 5649; assay: In vitro agar dilution MIC, organism code ZZA; details: Table 1B, unit assumed
Procedure, shortened: as §1

SMILES | MIC [1] | MIC [2] | MIC [3] | MIC [4] | MIC [5] | MIC [6] | MIC [7] | MIC [8] | MIC [9] | MIC [10] | MIC [11] | MIC [12] | MIC [13] | MIC [14] | MIC [15] | MIC [16] | MIC [17] | MIC [18] | MIC [19] | MIC [20] | also measured
CC[C@H]1OC(=O)[C@@](C)(F)C(=O)[C@H](C)[C@@H](O[C@@H]2O[C@H](C)C[C@H](N(C)C)[C@H]2O)[C@](C)(OC/C=C/c2cnc3ccc(C=NN=C(C)C)cc3c2)C[C@@H](C)C(=O)[C@H](C)[C@H]2NC(=O)O[C@@]21C [Example 20] | 0.1 µg/mL (≈ 0.115 µM) | 0.1 | > 100 µg/mL | 0.1 µg/mL (≈ 0.115 µM) | 0.2 µg/mL (≈ 0.231 µM) | 0.1 µg/mL (≈ 0.115 µM) | > 100 µg/mL | 0.2 | 0.1 µg/mL (≈ 0.115 µM) | 0.01 µg/mL (≈ 0.0115 µM) | 0.02 µg/mL (≈ 0.0231 µM) | 0.02 µg/mL (≈ 0.0231 µM) | 1.56 µg/mL (≈ 1.8 µM) | 0.2 µg/mL (≈ 0.231 µM) | 0.02 µg/mL (≈ 0.0231 µM) | 0.1 | > 100 | 0.78 | > 100 µg/mL | > 100 µg/mL | MIC [21]: 0.78; MIC [22]: 0.02; MIC [23]: 4 µg/mL (≈ 4.62 µM); MIC [24]: 0.125 µg/mL (≈ 0.144 µM); MIC [25]: 0.06 µg/mL (≈ 0.0693 µM); MIC [26]: 2 µg/mL (≈ 2.31 µM); MIC [27]: 1 µg/mL (≈ 1.15 µM)
CC[C@H]1OC(=O)C(C)(F)C(=O)[C@H](C)[C@@H](O[C@@H]2O[C@H](C)C[C@H](N(C)C)[C@H]2O)[C@](C)(OCC#CC(=O)c2ccccc2)C[C@@H](C)C(=O)[C@H](C)[C@H]2NC(=O)O[C@@]21C (stereo partly drawn) [Example 23] | 1.56 µg/mL (≈ 2.06 µM) | 0.78 | > 100 µg/mL | 1.56 µg/mL (≈ 2.06 µM) | 1.56 µg/mL (≈ 2.06 µM) | 0.78 µg/mL (≈ 1.03 µM) | > 100 µg/mL | 1.56 | 0.78 µg/mL (≈ 1.03 µM) | 0.1 µg/mL (≈ 0.132 µM) | 0.39 µg/mL (≈ 0.514 µM) | 0.39 µg/mL (≈ 0.514 µM) | > 100 µg/mL | 1.56 µg/mL (≈ 2.06 µM) | 0.2 µg/mL (≈ 0.264 µM) | 1.56 | > 100 | 3.1 | > 100 µg/mL | > 100 µg/mL | MIC [21]: 3.1; MIC [22]: 0.78; MIC [23]: 8 µg/mL (≈ 10.5 µM); MIC [24]: 0.03 µg/mL (≈ 0.0395 µM); MIC [25]: 0.03 µg/mL (≈ 0.0395 µM); MIC [26]: > 128 µg/mL; MIC [27]: 2 µg/mL (≈ 2.64 µM)
CC[C@H]1OC(=O)C(C)(F)C(=O)[C@H](C)[C@@H](O[C@@H]2O[C@H](C)C[C@H](N(C)C)[C@H]2O)[C@](C)(OCC#CC(=O)c2cccs2)C[C@@H](C)C(=O)[C@H](C)[C@H]2NC(=O)O[C@@]21C (stereo partly drawn) [Example 24] | 1.56 µg/mL (≈ 2.04 µM) | 1.56 | > 100 µg/mL | 1.56 µg/mL (≈ 2.04 µM) | 1.56 µg/mL (≈ 2.04 µM) | 1.56 µg/mL (≈ 2.04 µM) | > 100 µg/mL | 1.56 | 0.39 µg/mL (≈ 0.51 µM) | 0.2 µg/mL (≈ 0.261 µM) | 0.39 µg/mL (≈ 0.51 µM) | 0.39 µg/mL (≈ 0.51 µM) | 100 µg/mL (≈ 131 µM) | 3.1 µg/mL (≈ 4.05 µM) | 0.2 µg/mL (≈ 0.261 µM) | 0.78 | 100 | 3.1 | > 100 µg/mL | > 100 µg/mL | MIC [21]: 3.1; MIC [22]: 0.78; MIC [23]: 16 µg/mL (≈ 20.9 µM); MIC [24]: 0.06 µg/mL (≈ 0.0784 µM); MIC [25]: 0.03 µg/mL (≈ 0.0392 µM); MIC [26]: > 64 µg/mL; MIC [27]: 1 µg/mL (≈ 1.31 µM)
